Reference: patent US11198710B2, “Transgenic plant having herbicide resistance” (priority 2016, dated 2021)
Read-outs that look alike come from different tables or passages of the source.

Key:
[1] = tested on: ZmGST8 (ZmQ9FQD1); conditions: Non-Patent Document 12; cited from earlier work
[2] = molecular target: maize-derived GST (GSTI, ZmM16901) (Zea mays, UniProt P12653); conditions: Non-Patent Document 11; cited from earlier work
[3] = tested on: rice plants comprising the TaQ8GTC0 gene introduced therein; assay: Herbicide resistance test of rice plants comprising the TaQ8GTC0 gene, gellan gum medium, plant height; format: in vivo; conditions: lineage #3-13; minimal concentration (×1), ×4 and ×16 of Table 4
Protocol: Hoagland's mix and 3 g of gellan gum were suspended in 1 liter of distilled water and thoroughly dissolved therein by heating in a microwave. A fraction of the resultant (15 ml) was injected into a tubular bottle before it was cooled (30 ml was injected into the plate). The herbicide was simultaneously added at the time of injection of the gellan gum medium into the tubular bottle or plate, followed by thorough mixing. Rice hulls were soaked in a 50-fold diluted sodium hypochlorite solution (antiformin) (Wako) for approximately 20 minutes and then thoroughly washed with water. Sterilized seeds were soaked in distilled water and allowed to stand at 27° C. for germination (for approximately 2 days). Germinating seeds were softly planted in the gellan gum medium (plate) containing 0.25 μM BS. These samples, together with a beaker filled with distilled water, were placed in a transparent case, which was then covered with a clear plastic wrap. These samples were grown at 27° C. under fluorescent light illumination (14 hours of a light period and 10 hours of a dark period) for 2 days. Thereafter, rice seeds that were determined to have BS resistance with the use of root elongation as the indicator were transferred to gellan gum media containing pyroxasulfone (tubal bottles) at the final concentrations of 10^−8, 10^−7, 10^−6, and 10^−5M, respectively. Subsequently, these samples, together with a beaker filled with distilled water, were placed in a transparent case, which was then covered with a clear plastic wrap. These samples were grown at 27° C. under fluorescent light illumination (14 hours of a light period and 10 hours of a dark period) for 4 to 5 days, and the plant heights were then measured. Inhibition of shoot growth was determined by comparison to control plants grown in the absence of pyroxasulfone and the concentration for required 50% inhibition (IC50) was determined by the Probit method.
Resistance of rice plants comprising the TaQ8GTC0 gene introduced therein to VLCFAE-inhibiting herbicides was tested in the same manner as with the pyroxasulfone resistance test described above.
FIGS. 7-1 to 7-6 show the results. In FIGS. 7-1 to 7-6, the concentration of 0 μM, the minimal concentration shown in Table 4 (×1), the concentration 4 times higher than the minimal concentration shown in Table 4 (×4), and the concentration 16 times higher than the minimal concentration shown in Table 4 (×16) are shown successively from left to right.

[4] = tested on: wild-type rice plant (Nipponbare); assay: Sensitivity of wild-type rice (Nipponbare) to VLCFAE-inhibiting herbicides, gellan gum medium; format: in vivo; conditions: Oryza sativa, 168 h; for minimal effective concentration: read-out: Minimal inhibitory concentration; for IC50: read-out: I50
Protocol: Whether or not a rice plant comprising the TaQ8GTC0 gene introduced therein has VLCFAE-inhibiting herbicide resistance was determined on the basis of a difference in sensitivity of rice between transformant and wild-type. Accordingly, the sensitivity of the wild-type rice plant (Nipponbare) to VLCFAE-inhibiting herbicides used in the glutathione conjugation activity test was examined as described below.
The growth inhibition test was carried out using a gellan gum medium. Hoagland's mix and 3 g of gellan gum were suspended in 1 liter of distilled water and thoroughly dissolved therein by heating in a microwave. A fraction of the resultant (15 ml) was poured in a tubular bottle before it was cooled. When the herbicide (an acetone solution) was to be incorporated thereinto, the herbicide was simultaneously added at the time of filling of the gellan gum medium into the tubular bottle, followed by thorough mixing (final acetone concentration: 0.1%). Rice hulls were soaked in a 50-fold diluted sodium hypochlorite solution (antiformin) (Wako) for approximately 20 minutes and then thoroughly rinsed with water. Sterilized seeds were soaked in distilled water and allowed to stand at 27° C. for germination (for approximately 2 days). Germinating seeds were transferred with the sprout side up to a gellan gum medium containing herbicide (the tubular bottle). Subsequently, these samples, together with a beaker filled with distilled water, were placed in a transparent case, which was then covered with a clear plastic wrap. These samples were grown at 27° C. under fluorescent light illumination (14 hours of a light period and 10 hours of a dark period) for 1 week, the plants were sampled, and the plant heights were then measured. Inhibition of shoot growth was determined by comparison to control plant grown in the absence of herbicide and the concentration required for 50% inhibition (IC50) was determined by the Probit method.

[5] = tested on: TaQ8GTC0 protein; assay: Glutathione conjugation activity of the TaQ8GTC0 protein to VLCFAE-inhibiting herbicides (HPLC); format: biochemical, wheat (Triticum aestivum); conditions: 378 ng TaQ8GTC0 protein, 10 μl of 1 mM herbicide in 200 μl, 30° C., 15 minutes; mean ± standard deviation
Protocol: All the VLCFAE-inhibiting herbicides used in this example were added to the reaction mixture as acetone solutions. Conjugation reactions to the VLCFAE-inhibiting herbicides were performed in a reaction mixture (total amount: 200 μl) containing 50 μl of 100 mM potassium phosphate buffer (pH 6.8), 10 μl of 1 mM VLCFAE-inhibiting herbicide, 20 μl of 10 mM reduced glutathione (pH 7.0), 6 μl of the TaQ8GTC0 protein (378 ng in total, PBS buffer solution) and 114 μl of PBS buffer, the reaction was conducted at 30° C. for 15 minutes, the reaction product was filtered through a […], and 50 μl of the filtered solution was injected into HPLC. HPLC analysis conditions were as described below.
Apparatus: Agilent 1100 series
Column: CAPCELL PAK C18 AQ 4.6 mm (i.d.)×250 mm (SHISEIDO)
Mobile phase: acetonitrile/distilled water=5/95 (hold for 5 min)→(4 min)→40/60 (hold for 4 min)→(4 min)→90/10 (hold for 8 min)→(1 min)→5/95 (hold for 4 min) (each solvent containing 0.5% acetic acid)
When the activity of glutathione conjugation to VLCFAE-inhibiting herbicides was analyzed, the amount of glutathione conjugates (GS conjugates) produced was determined based on the amount of VLCFAE-inhibiting herbicides decreased in the reaction solution.
In Example 1, the conjugation activity to cafenstrole was determined via quantification of the compound released by the glutathione conjugation of this herbicide. In addition, peaks of GS conjugate of other herbicides (i.e., metolachlor, alachlor, flufenacet, mefenacet, phentolazamide, indanofan, anilofos, and piperophos) were unknown. When analyzing the glutathione conjugation activities to these herbicides, accordingly, glutathione conjugation reactions were performed to produce GS conjugate in the modified conditions (i.e., more amount of enzyme was added or the conjugation reaction was conducted for longer time) in the beginning to produce glutathione conjugates (GS conjugates), and the peaks were identified with LC/MS.

[6] = tested on: TaQ8GTC1-R protein; assay: Glutathione conjugation activity of the TaQ8GTC1-R protein to CDNB (absorbance at 340 nm); format: biochemical, wheat; conditions: 30° C., pH 7.6, n=2
Protocol: The glutathione conjugation activity to CDNB was assayed in a reaction mixture (1 ml in total) containing 634 μl of 100 mM potassium phosphate buffer (pH 7.6), 300 μl of 3.3 mM reduced glutathione, 33 μl of a purified enzyme (PBS solution containing 20% glycerol), and 33 μl of 30 mM CDNB (ethanol solution). First, reaction mixture except CDNB was prepared, enzyme reaction was started by the addition of CDNB, and the absorbance at 340 nm was monitored at 30° C. The enzyme activity was calculated using a molar extinction coefficient of glutathione conjugate of CDNB (GS-CDNB) (9.6 mM^−1cm^−1). The amount of GS-CDNB produced in a negative control mixture prepared with the addition of PBS containing 20% glycerol instead of the enzyme (i.e., a non-enzymatic reaction group) was designated as the amount of non-enzymatic production.

[7] = tested on: Arabidopsis thaliana plant comprising the TaQ8GTC0 gene introduced therein; assay: Sensitivity of Arabidopsis thaliana comprising the TaQ8GTC0 gene to herbicides on MS agar medium; format: in vivo; conditions: KLB-718 1-1-5; concentrations of Table 5; 22° C., 14 days
Protocol: A medium was prepared as described below, so as to examine the pyroxasulfone resistance of the Arabidopsis thaliana plant comprising the TaQ8GTC0 gene introduced therein. At the outset, the Murashige-Skoog (MS) media (1 bag), thiamin hydrochloride (3 mg), nicotinic acid (5 mg), pyridoxin hydrochloride (0.5 mg), and sucrose (10 g) were added into a 1-liter beaker, a pH was adjusted to 5.7, the volume of the content was adjusted to 1 liter, and 8 g (0.8%) of agar was added. The resultant was autoclaved and cooled to room temperature, and pyroxasulfone (an acetone solution) was added thereto. A 30-ml fraction thereof was fractionated into a No. 2 square plate to prepare an MS medium containing pyroxasulfone at a given concentration.
Pyroxasulfone sensitivity of transgenic Arabidopsis thaliana plants was tested with the use of the medium prepared above as described below. A necessary amount of Arabidopsis thaliana dry seeds was agitated in 70% ethanol for 2 minutes and in hypochlorous acid containing 0.02% Triton-X-100 for 15 minutes, followed by washing with sterile water 10 times. Subsequently, the seeds were suspended in 1 ml of the autoclaved 0.1% agar solution, the suspension was thoroughly mixed to prepare a homogeneous solution, and a total of 30 seeds were each placed on the medium surface. The resultant was sealed with a surgical tape, allowed to stand at 4° C. for 2 days, and then transferred to 22° C. for germination.
On the basis of the concentrations above, sensitivity of the Arabidopsis thaliana plant comprising the TaQ8GTC0 gene introduced therein to VLCFAE-inhibiting herbicides was examined. The results are show in FIGS. 13 and 14. The photographs shown in FIGS. 13 and 14 were taken after the plants were grown at 22° C. for 14 days.

[8] = minimal concentration at which growth of wild-type rice is inhibited
[9] = shoot growth, 1 week, Probit method

maize-derived GST (GSTI, ZmM16901), sequence (P12653 whole entry): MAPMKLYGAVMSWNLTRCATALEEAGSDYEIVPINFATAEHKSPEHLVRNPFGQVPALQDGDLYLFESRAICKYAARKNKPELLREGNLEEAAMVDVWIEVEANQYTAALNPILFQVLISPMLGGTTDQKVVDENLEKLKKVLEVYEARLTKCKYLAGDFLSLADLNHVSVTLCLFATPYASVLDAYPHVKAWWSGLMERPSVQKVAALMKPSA

CCc1cccc(CC)c1N(COC)C(=O)CCl [Alachlor]
conjugation activity [1]: does not exert conjugation activity
conjugation activity [2]: high-level conjugation activity
growth of rice plants comprising the TaQ8GTC0 gene on herbicide medium [3]: not affected at the minimal concentration, but the growth thereof was inhibited at the 4-fold concentration
minimal effective concentration [4, 8]: 0.5 µM
IC50 [4, 9]: 332 nM
Enzyme activity (glutathione conjugation) [5]: 1.5 ± 0.1 μmol/mg protein/15 min

COP(=S)(OC)SCC(=O)N(c1ccc(Cl)cc1)C(C)(C)C [Anilofos]
minimal effective concentration [4, 8]: 0.5 µM
IC50 [4, 9]: 377 nM

O=[N+]([O-])c1ccc(Cl)c([N+](=O)[O-])c1 [CDNB, 2,4-dinitrochlorobenzene]
glutathione conjugation activity to CDNB [6]: 2.17 μmol/min/mg protein

CCN(CC)C(=O)n1cnc(S(=O)(=O)c2c(C)cc(C)cc2C)n1 [Cafenstrole]
growth of rice plants comprising the TaQ8GTC0 gene on herbicide medium [3]: the growth thereof was inhibited at the minimal concentration
minimal effective concentration [4, 8]: 0.75 µM
IC50 [4, 9]: 131 nM
Enzyme activity (glutathione conjugation) [5]: 0.46 ± 0.1 μmol/mg protein/15 min

CCOc1cc(Cl)c(CS(=O)(=O)C2=NOC(C)(C)C2)cc1Cl [Fenoxasulfone, 3-[(2,5-dichloro-4-ethoxybenzyl)sulfonyl]-4,5-dihydro-5,5-dimethyl-1,2-oxazole]
sensitivity of the Arabidopsis thaliana plant comprising the TaQ8GTC0 gene to VLCFAE-inhibiting herbicides [7]: strong resistance
growth of rice plants comprising the TaQ8GTC0 gene on herbicide medium [3]: the growth thereof was not affected at the maximal test concentration
minimal effective concentration [4, 8]: 0.05 µM
IC50 [4, 9]: 54 nM
Enzyme activity (glutathione conjugation) [5]: 19.5 ± 8.4 μmol/mg protein/15 min

CCN(C(=O)n1nnn(-c2ccccc2Cl)c1=O)C1CCCCC1 [Fentrazamide]
growth of rice plants comprising the TaQ8GTC0 gene on herbicide medium [3]: the growth thereof was inhibited at the minimal concentration
minimal effective concentration [4, 8]: 0.5 µM
IC50 [4, 9]: 46 nM
Enzyme activity (glutathione conjugation) [5]: 0.93 ± 0.2 μmol/mg protein/15 min

CC(C)N(C(=O)COc1nnc(C(F)(F)F)s1)c1ccc(F)cc1 [Flufenacet]
growth of rice plants comprising the TaQ8GTC0 gene on herbicide medium [3]: the growth thereof was inhibited at the minimal concentration
minimal effective concentration [4, 8]: 0.075 µM
IC50 [4, 9]: 42 nM

CCC1(CC2(c3cccc(Cl)c3)CO2)C(=O)c2ccccc2C1=O (stereo not drawn) [Indanofan]
growth of rice plants comprising the TaQ8GTC0 gene on herbicide medium [3]: the growth thereof was inhibited at the minimal concentration
minimal effective concentration [4, 8]: 0.25 µM
IC50 [4, 9]: 61 nM

CN(C(=O)COc1nc2ccccc2s1)c1ccccc1 [Mefenacet]
growth of rice plants comprising the TaQ8GTC0 gene on herbicide medium [3]: not affected at the minimal concentration, but the growth thereof was inhibited at the 4-fold concentration
minimal effective concentration [4, 8]: 0.75 µM
IC50 [4, 9]: 388 nM

CCc1cccc(C)c1N(C(=O)CCl)C(C)COC (stereo not drawn) [Metolachlor]
conjugation activity [2]: does not exert conjugation activity
growth of rice plants comprising the TaQ8GTC0 gene on herbicide medium [3]: not affected at the minimal concentration, but the growth thereof was inhibited at the 4-fold concentration
minimal effective concentration [4, 8]: 0.75 µM
IC50 [4, 9]: 636 nM
Enzyme activity (glutathione conjugation) [5]: 2.2 ± 0.8 μmol/mg protein/15 min

CCCOP(=S)(OCCC)SCC(=O)N1CCCCC1C (stereo not drawn) [Piperophos]
growth of rice plants comprising the TaQ8GTC0 gene on herbicide medium [3]: the growth thereof was inhibited at the minimal concentration
IC50 [4]: 1310 nM
minimal effective concentration [4]: 2.5 µM
